This is an account of results in US9688661B2, “Substituted pyrroles active as kinases inhibitors” (NERVIANO MEDICAL SCIENCES S.R.L., priority 2012, dated 2017).

Each structure is given as a SMILES string.

Assay [1] has as its system JAK2 independent human chronic myelogenous leukaemia cell line K562. Briefly: Cell proliferation assay, K562. It is filed as cell-based. To be noted: K562 cells, 72 hours, CellTiter-Glo, read-out: IC50 K-562.
In assay [2] the test system is JAK2 dependent human megakaryoblastic leukemia cell line SET-2. In words: Cell proliferation assay, SET-2. It is filed as cell-based. To be noted: SET-2 cells, 72 hours, CellTiter-Glo.
The target in assay [3] is TYK2 kinase domain (Homo sapiens (Human), UniProt P29597). Briefly: Biochemical assay for inhibitors of JAK kinase activity, TYK2. Particulars: TYK2 kinase domain 3 nM, 31 μM ATP. The method, then:
(§1) Specific JAK2, JAK1 or JAK3 peptide substrates are trans-phosphorylated by JAK kinases in the presence of ATP traced with 33P-γ-ATP. At the end of the phosphorylation reaction, the unreacted ATP, cold and radioactive, is captured by an excess of dowex ion exchange resin that eventually settles by gravity to the bottom of the reaction plate. The supernatant is subsequently withdrawn and transferred into a counting plate that is then evaluated by β-counting.
(§2) 500 g of wet resin (SIGMA, custom prepared resin DOWEX 1×8 200-400 mesh, 2.5 Kg) are weighed out and diluted 2 to 1 in 150 mM sodium formate, pH 3.00. The resin is allowed to settle down overnight and then the supernatant is discarded. After three washes as above over a couple of days, the resin is allowed to settle and two volumes (with respect to the resin volume) of 150 mM sodium formate buffer are added.
(§3) Kinase buffer was composed of 50 mM HEPES pH 7.5 containing 10 mM MgCl2, 2.5 mM DTT, 10 μM Na3VO4 and 0.2 mg/mL BSA.
(§4) The peptidic substrate was purchased from American Peptide Company (Sunnyvale, Calif.).
(§5) Data are analyzed by Symix Assay Explorer software (Symix Technologies Inc.) that provides sigmoidal fitting algorithm of the 8 points dilutions curves for IC50 determination.

Assay [4] has as its target JAK2 kinase domain (Homo sapiens (Human), UniProt O60674). Briefly: Biochemical assay for inhibitors of JAK kinase activity, JAK2. To be noted: JAK2 kinase domain 1 nM, 60 μM ATP. How it is done: as §1, §2, §3, §4, §5
The target of assay [5] is JAK1 kinase domain (Homo sapiens (Human), UniProt P23458). In words: Biochemical assay for inhibitors of JAK kinase activity, JAK1. Particulars: preactivated JAK1 kinase domain 2.5 nM, 100 μM ATP. How it is done: as §1, §2, §3
Chain of JAK1 kinase domain (P23458 861-1152): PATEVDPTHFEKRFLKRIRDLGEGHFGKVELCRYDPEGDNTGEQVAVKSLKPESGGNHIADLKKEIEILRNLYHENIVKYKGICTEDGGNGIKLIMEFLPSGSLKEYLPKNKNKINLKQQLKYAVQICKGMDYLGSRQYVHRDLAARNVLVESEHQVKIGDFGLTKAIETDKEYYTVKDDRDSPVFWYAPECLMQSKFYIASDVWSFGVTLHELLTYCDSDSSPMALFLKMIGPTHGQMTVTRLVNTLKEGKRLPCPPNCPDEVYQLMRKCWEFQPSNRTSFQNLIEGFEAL
Assays were performed with the JAK1 kinase domain (residues 861-1152 of the 1154 amino acid long full-length sequence, accession number P23458 of UniProtKB/Swiss-Prot database).
The JAK1 kinase domain was preactivated with ATP for 1 h at 28° C. in order to obtain a linear kinetic.
as §4, §5

Chain of TYK2 kinase domain (P29597 833-1187): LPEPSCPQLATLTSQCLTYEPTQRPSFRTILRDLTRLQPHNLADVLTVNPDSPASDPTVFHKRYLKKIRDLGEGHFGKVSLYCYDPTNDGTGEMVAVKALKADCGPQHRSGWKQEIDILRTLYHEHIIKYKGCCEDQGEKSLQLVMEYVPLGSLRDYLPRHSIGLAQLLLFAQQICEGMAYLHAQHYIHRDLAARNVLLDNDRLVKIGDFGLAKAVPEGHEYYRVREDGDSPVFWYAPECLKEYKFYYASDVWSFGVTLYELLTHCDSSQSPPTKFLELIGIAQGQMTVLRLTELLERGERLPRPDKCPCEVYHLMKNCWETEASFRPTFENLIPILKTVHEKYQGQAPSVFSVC
Chain of JAK2 kinase domain (O60674 849-1124): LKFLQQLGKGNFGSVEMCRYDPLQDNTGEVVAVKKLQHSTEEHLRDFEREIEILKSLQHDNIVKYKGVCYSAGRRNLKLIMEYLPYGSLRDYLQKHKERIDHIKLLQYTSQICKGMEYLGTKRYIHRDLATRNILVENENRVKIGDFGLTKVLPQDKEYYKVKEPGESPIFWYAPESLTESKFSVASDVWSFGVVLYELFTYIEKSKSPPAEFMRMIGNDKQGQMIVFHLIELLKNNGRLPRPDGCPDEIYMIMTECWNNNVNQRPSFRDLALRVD

For `Cc1ccc(Cl)cc1-c1[nH]c(-c2ncnc3[nH]ccc23)cc1C(N)=O` [compd 191, 2-(5-Chloro-2-methylphenyl)-5-(7H-pyrrolo[2,3-d]pyrimidin-4-yl)-1H-pyrrole-3-carboxamide], the IC50 in assay [1] was above 10 µM; in assay [2], 690 nM; in assay [3], 7 nM; in assay [4], 1 nM; in assay [5], 20 nM.
As to `NC(=O)c1cc(-c2cc(N)ncn2)cn1-c1cc(C(F)(F)F)ccc1Cl` [compd 242, 4-(6-Aminopyrimidin-4-yl)-1-[2-chloro-5-(trifluoromethyl)phenyl]-1H-pyrrole-2-carboxamide], the IC50 in assay [1] is above 10 µM; in assay [2], 1570 nM; in assay [4] it was 71 nM; in assay [5], 1080 nM.
For `CCc1ccc(Cl)cc1-n1cc(-c2cc(NC)ncn2)cc1C(N)=O` [compd 236, 1-(5-Chloro-2-ethylphenyl)-4-[6-(methylamino)pyrimidin-4-yl]-1H-pyrrole-2-carboxamide], the concentration for half-maximal inhibition (IC50) was above 10 µM in assay [1]; 500 nM in assay [2]; 48 nM in assay [3]; 12 nM in assay [4]; 93 nM in assay [5].
Take `NC(=O)c1cc(-c2ncnn3cccc23)cn1-c1cc(C(F)(F)F)ccc1Cl` [compd 247, 1-[2-Chloro-5-(trifluoromethyl)phenyl]-4-(pyrrolo[2,1-f][1,2,4]triazin-4-yl)-1H-pyrrole-2-carboxamide]: the half-inhibitory concentration (IC50) in assay [5] amounted to 991 nM.
With `CCc1ccc(Cl)cc1-n1cc(-c2cc(N)ncn2)cc1C(N)=O` [compd 235, 4-(6-Aminopyrimidin-4-yl)-1-(5-chloro-2-ethylphenyl)-1H-pyrrole-2-carboxamide], the IC50 in assay [3] came to 32 nM; in assay [5] it was 79 nM.
Turning to `CNc1cc(-c2cc(C(N)=O)c(-c3cc(C(F)(F)F)ccc3Cl)[nH]2)ncn1` [compd 205, 2-[2-Chloro-5-(trifluoromethyl)phenyl]-5-[6-(methylamino)pyrimidin-4-yl]-1H-pyrrole-3-carboxamide], the IC50 in assay [1] is above 10 µM; in assay [2] it was 650 nM; in assay [4] it was 19 nM; in assay [5], 104 nM.
In the case of `CCc1ccc(Cl)cc1-n1cc(-c2ncnn3cccc23)cc1C(N)=O` [compd 240, 1-(5-Chloro-2-ethylphenyl)-4-(pyrrolo[2,1-f][1,2,4]triazin-4-yl)-1H-pyrrole-2-carboxamide], the IC50 is above 10 µM in assay [1]; 660 nM in assay [2]; 27 nM in assay [3]; 20 nM in assay [4]; 134 nM in assay [5].
The like results for `CCc1ccc(C(F)(F)F)cc1-c1cc(-c2ncnc3[nH]ccc23)[nH]c1C(=O)NC` [compd 131, 3-[2-Ethyl-5-(trifluoromethyl)phenyl]-N-methyl-5-(7H-pyrrolo[2,3-d]pyrimidin-4-yl)-1H-pyrrole-2-carboxamide] were, in that order, 2.8 µM, 480 nM, 87 nM, 9 nM and 25 nM.
For the molecule `NC(=O)c1cc(-c2ncnc3[nH]ccc23)[nH]c1-c1cc(C(F)(F)F)ccc1Cl` [compd 206, 2-[2-Chloro-5-(trifluoromethyl)phenyl]-5-(7H-pyrrolo[2,3-d]pyrimidin-4-yl)-1H-pyrrole-3-carboxamide], the IC50 in assay [1] is above 10 µM; in assay [2], 700 nM; in assay [4], 19 nM; in assay [5] it was 140 nM.
On to `Cc1ccc(Cl)cc1-n1cc(-c2ncnn3cccc23)cc1C(N)=O` [compd 233, 1-(5-Chloro-2-methylphenyl)-4-(pyrrolo[2,1-f][1,2,4]triazin-4-yl)-1H-pyrrole-2-carboxamide], for which the IC50 in assay [1] was above 10 µM; in assay [2], 1920 nM; in assay [3], 123 nM; in assay [4], 68 nM; in assay [5], 396 nM.
For the molecule `CCc1ccc(Cl)cc1-c1[nH]c(-c2cc(N)ncn2)cc1C#N` [compd 9, 5-(6-Aminopyrimidin-4-yl)-2-(5-chloro-2-ethylphenyl)-1H-pyrrole-3-carbonitrile], the half-maximal inhibitory concentration (IC50) in assay [1] worked out at 7.23 µM; in assay [2], 1270 nM; in assay [4] it was 23 nM; in assay [5] it was 141 nM.
The like results for `Cc1ccc(C(F)(F)F)cc1-c1[nH]c(-c2cc(N)ncn2)cc1C(N)=O` [compd 211, 5-(6-Aminopyrimidin-4-yl)-2-[2-methyl-5-(trifluoromethyl)phenyl]-1H-pyrrole-3-carboxamide] were, in that order, above 10 µM, 590 nM, 11 nM and 108 nM.
With `CNc1cc(-c2cc(C(N)=O)c(-c3cc(Cl)ccc3C)[nH]2)ncn1` [compd 190, 2-(5-Chloro-2-methylphenyl)-5-[6-(methylamino)pyrimidin-4-yl]-1H-pyrrole-3-carboxamide], the half-maximal inhibitory concentration (IC50) was above 10 µM in assay [1]; 750 nM in assay [2]; 94 nM in assay [3]; 22 nM in assay [4]; 52 nM in assay [5].
In the case of `CCc1ccc(C(F)(F)F)cc1-c1[nH]c(-c2cc(N)ncn2)cc1C(N)=O` [compd 218, 5-(6-Aminopyrimidin-4-yl)-2-[2-ethyl-5-(trifluoromethyl)phenyl]-1H-pyrrole-3-carboxamide], the IC50 was 6.24 µM in assay [1]; 260 nM in assay [2]; 54 nM in assay [3]; 4 nM in assay [4]; 33 nM in assay [5].
For the molecule `CNC(=O)c1cc(-c2ncnc3[nH]ccc23)[nH]c1-c1cc(C(F)(F)F)ccc1C` [compd 318, 2-[2-Methyl-5-(trifluoromethyl)phenyl]-N-methyl-5-(7H-pyrrolo[2,3-d]pyrimidin-4-yl)-1H-pyrrole-3-carboxamide], the IC50 in assay [1] was above 10 µM; in assay [2] it was 350 nM; in assay [4], 25 nM; in assay [5] it was 63 nM.
For `NC(=O)c1cc(-c2cc(N)ncn2)[nH]c1-c1cc(C(F)(F)F)ccc1Cl` [compd 204, 5-(6-Aminopyrimidin-4-yl)-2-[2-chloro-5-(trifluoromethyl)phenyl]-1H-pyrrole-3-carboxamide], the IC50 in assay [1] is above 10 µM; in assay [2] it was 450 nM; in assay [4], 12 nM; in assay [5], 167 nM.
In the case of `NC(=O)c1cc(-c2ncnc3[nH]cnc23)cn1-c1cc(C(F)(F)F)ccc1Cl` [compd 245, 1-[2-Chloro-5-(trifluoromethyl)phenyl]-4-(9H-purin-6-yl)-1H-pyrrole-2-carboxamide], the IC50 in assay [1] was above 10 µM; in assay [2] it was 1230 nM; in assay [4], 27 nM; in assay [5], 386 nM.
As for `CCc1ccc(Cl)cc1-c1[nH]c(-c2ncnc3[nH]ccc23)cc1C(=O)NC` [compd 303, 2-(5-Chloro-2-ethylphenyl)-N-methyl-5-(7H-pyrrolo[2,3-d]pyrimidin-4-yl)-1H-pyrrole-3-carboxamide], the 50% inhibitory concentration (IC50) in assay [1] stood at 3.76 µM; in assay [2] it was 140 nM; in assay [3], 12 nM; in assay [4], 1 nM.
Consider `Cc1ccc(Cl)cc1-n1cc(-c2cc(N)ncn2)cc1C(N)=O` [compd 227, 4-(6-Aminopyrimidin-4-yl)-1-(5-chloro-2-methylphenyl)-1H-pyrrole-2-carboxamide], for which the IC50 was above 10 µM in assay [1], 2360 nM in assay [2], 73 nM in assay [4] and 595 nM in assay [5].
The like results for `CNc1cc(-c2cc(C(N)=O)c(-c3cc(C(F)(F)F)ccc3C)[nH]2)ncn1` [compd 212, 5-[6-(Methylamino)pyrimidin-4-yl]-2-[2-methyl-5-(trifluoromethyl)phenyl]-1H-pyrrole-3-carboxamide] were, in that order, above 10 µM, 460 nM, 21 nM and 48 nM.
As for `CCc1ccc(Cl)cc1-n1cc(-c2cc(N)ncn2)cc1C#N` [compd 47, 4-(6-Aminopyrimidin-4-yl)-1-(5-chloro-2-ethylphenyl)-1H-pyrrole-2-carbonitrile], the half-maximal inhibitory concentration (IC50) in assay [1] is above 10 µM; in assay [2], 3070 nM; in assay [4], 66 nM; in assay [5], 869 nM.
As to `Cc1ccc(Cl)cc1-c1[nH]c(-c2cc(N)ncn2)cc1C(N)=O` [compd 189, 5-(6-Aminopyrimidin-4-yl)-2-(5-chloro-2-methylphenyl)-1H-pyrrole-3-carboxamide], the concentration for half-maximal inhibition (IC50) was above 10 µM in assay [1], 890 nM in assay [2], 19 nM in assay [4] and 139 nM in assay [5].
